Measured values as given in patent US6934639B1, “Methods for designing agents that interact with MMP-13” (Wyeth, priority 2000, dated 2005).

Legend:
Assay type in all cases: biochemical
[1] = target: T1, MMP-1 (Homo sapiens, UniProt P03956); assay: MMP-1 enzyme inhibition (IC50)
T1 sequence (P03956 100-469): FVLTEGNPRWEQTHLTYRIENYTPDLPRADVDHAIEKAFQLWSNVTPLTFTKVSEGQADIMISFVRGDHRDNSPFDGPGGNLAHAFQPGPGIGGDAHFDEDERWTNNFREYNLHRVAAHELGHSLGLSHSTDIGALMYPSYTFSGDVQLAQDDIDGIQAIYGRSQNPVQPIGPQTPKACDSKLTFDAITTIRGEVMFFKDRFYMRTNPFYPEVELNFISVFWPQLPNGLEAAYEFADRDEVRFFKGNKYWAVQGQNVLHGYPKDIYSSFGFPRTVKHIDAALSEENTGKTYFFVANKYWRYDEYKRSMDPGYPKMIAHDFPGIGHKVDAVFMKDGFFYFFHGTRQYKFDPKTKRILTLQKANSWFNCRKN

[2] = target: MMP-13 (Homo sapiens, UniProt P45452); assay: MMP-13 enzyme inhibition (IC50)
[3] = target: MMP-9 (Homo sapiens, UniProt P14780); assay: MMP-9 enzyme inhibition (IC50)
[4] = target: TACE (Homo sapiens, UniProt P78536); assay: TACE enzyme inhibition (IC50)
Chain of TACE (P78536 215-824): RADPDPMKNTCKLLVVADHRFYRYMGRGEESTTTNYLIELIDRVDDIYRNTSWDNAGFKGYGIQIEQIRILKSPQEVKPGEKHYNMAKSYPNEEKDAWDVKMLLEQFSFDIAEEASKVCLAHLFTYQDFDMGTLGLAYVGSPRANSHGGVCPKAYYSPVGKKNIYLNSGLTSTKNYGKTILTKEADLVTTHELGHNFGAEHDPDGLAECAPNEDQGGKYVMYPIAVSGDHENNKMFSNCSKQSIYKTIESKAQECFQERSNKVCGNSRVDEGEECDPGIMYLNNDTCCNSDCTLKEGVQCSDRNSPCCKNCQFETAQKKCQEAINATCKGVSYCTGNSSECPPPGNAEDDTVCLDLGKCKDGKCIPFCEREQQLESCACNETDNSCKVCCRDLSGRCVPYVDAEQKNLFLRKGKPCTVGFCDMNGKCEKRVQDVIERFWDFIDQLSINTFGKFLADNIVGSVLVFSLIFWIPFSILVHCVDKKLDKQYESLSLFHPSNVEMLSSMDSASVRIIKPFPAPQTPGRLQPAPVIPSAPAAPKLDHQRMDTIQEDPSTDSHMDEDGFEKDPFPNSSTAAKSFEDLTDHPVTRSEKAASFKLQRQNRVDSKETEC

Chain of MMP-9 (P14780 94-707, species assumed): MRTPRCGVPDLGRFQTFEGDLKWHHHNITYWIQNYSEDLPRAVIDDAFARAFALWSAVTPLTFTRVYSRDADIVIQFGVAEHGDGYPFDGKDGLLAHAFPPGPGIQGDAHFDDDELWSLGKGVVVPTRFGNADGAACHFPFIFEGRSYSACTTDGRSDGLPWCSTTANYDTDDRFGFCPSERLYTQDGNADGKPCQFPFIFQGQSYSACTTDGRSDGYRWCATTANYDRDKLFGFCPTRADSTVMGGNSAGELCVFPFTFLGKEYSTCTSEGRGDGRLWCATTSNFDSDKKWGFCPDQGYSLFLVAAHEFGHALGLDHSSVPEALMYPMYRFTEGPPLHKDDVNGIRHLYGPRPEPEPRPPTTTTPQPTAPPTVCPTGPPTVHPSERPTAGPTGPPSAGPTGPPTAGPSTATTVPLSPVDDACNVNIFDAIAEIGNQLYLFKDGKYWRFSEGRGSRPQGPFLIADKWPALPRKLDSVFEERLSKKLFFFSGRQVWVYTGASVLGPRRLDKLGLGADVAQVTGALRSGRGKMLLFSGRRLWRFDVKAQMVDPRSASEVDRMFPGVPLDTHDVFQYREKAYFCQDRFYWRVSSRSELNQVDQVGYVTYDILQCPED

SMILES	IC50 [2] [nM]	IC50 [1] [nM]	IC50 [3] [nM]	IC50 [4] [nM]	other results
COc1ccc(S(=O)(=O)N(Cc2cccnc2)[C@@H](C(=O)NO)C(C)C)cc1 [CGS-27023A, reference compound]					potency as inhibitor of MMP-1 [1]: low nanomolar
COc1ccc(S(=O)(=O)N(Cc2cccnc2)c2c(C)cccc2C(=O)NO)cc1 [Compound A, N-Hydroxy-2-[(4-methoxy-benzenesulfonyl)-pyridin-3-ylmethyl-amino]-3-methyl-benzamide]					potency as inhibitor of MMP-13 [2]: low nanomolar
Cc1cc(C)c(N(Cc2ccccc2)S(=O)(=O)c2ccc(OCCc3ccccc3)cc2)c(C(=O)NO)c1 [Compound C, 2-[Benzyl-(4-phenethyloxy-benzenesulfonyl)-amino]-N-hydroxy-3,5-dimethyl-benzamide]	75	750	46		
COc1ccc(S(=O)(=O)N(Cc2ccccc2)c2c(C)cc(C)cc2C(=O)NO)cc1 [Compound D, 2-[Benzyl-(4-methoxy-benzenesulfonyl)-amino]-N-hydroxy-3,5-dimethyl-benzamide]				240	

Now from value to compound, other results behind:

IC50 [2] [nM]	IC50 [1] [nM]	IC50 [3] [nM]	SMILES	IC50 [4] [nM]	other results
17		945	Cc1cc(C)c(N(Cc2ccccc2)S(=O)(=O)c2ccc(OCCNC(=O)c3cc4ccccc4o3)cc2)c(C(=O)NO)c1 [Compound E, Benzofuran-2-carboxylic acid (2-{4-[benzyl-(2-hydroxycarbamoyl-4,6-dimethyl-phenyl)-sulfamoyl]-phenoxy}-ethyl)-amide]		
301	1020	71	Cc1cc(C)c(N(Cc2ccccc2)S(=O)(=O)c2ccc(OCCCc3ccccc3)cc2)c(C(=O)NO)c1 [Compound F]	664	S-1: selectivity, ratio of MMP-1 IC50 with MMP-13 ([1]; MMP-1 IC50 / MMP-13 IC50): 3.4 x; S-9: selectivity, ratio of MMP-9 IC50 with MMP-13 ([3]; MMP-9 IC50 / MMP-13 IC50): 0.2 x; S-TACE: selectivity, ratio of TACE IC50 with MMP-13 ([4]; TACE IC50 / MMP-13 IC50): 2.2 x
